{"source": "patent US10408843B2", "about": "“Compositions and methods for detecting S-nitrosylation and S-sulfinylation” (The Regents of the University of Michigan, priority 2013, dated 2019)", "key": {"human DJ-1 (Cys106-SO2H)": {"target": "T1, human DJ-1 (Cys106-SO2H) (Homo sapiens, UniProt Q99497)", "T1 construct": "6His; made in house; host or cells: E. coli BL21", "T1 sequence (Q99497 1-189)": "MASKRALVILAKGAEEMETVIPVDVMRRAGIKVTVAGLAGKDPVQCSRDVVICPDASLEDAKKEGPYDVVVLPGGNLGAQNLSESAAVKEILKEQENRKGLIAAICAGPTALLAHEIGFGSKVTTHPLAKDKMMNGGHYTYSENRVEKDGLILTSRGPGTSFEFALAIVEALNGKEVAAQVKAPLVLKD", "assay": "LC-MS analysis of DJ-1 conjugation with an S-nitrosothiol", "type": "biochemical", "conditions": "after iodoacetamide alkylation", "description": "(§1) FIG. 20A-C. S-nitrosothiol probes detect endogenous S-sulfinylation. (a) Direct conjugation of human DJ-1 (Cys106-SO2H) with N-acetyl-S-nitrosocysteine methyl ester. (b) MS/MS assignment of product ions from the S-sulfinylated peptide of human DJ-1, confirming direct thiosulfonate formation. (c) Gel-based analysis of S-sulfinylation in mammalian lysates with biotin-GSNO. Lysates are denatured and pre-alkylated with iodoacetamide.\nIt was next asked what would happen if the detection scheme was reversed, using S-nitrosothiol-linked probes to detect endogenous S-sulfinylation. Similar reactivity was recently reported using aryl-nitroso ligation to several sulfinic acid standards, including glutathione, to form a stable N-sulfonylbenzisoxazolone (see, e.g., Lo Conte, M. & Carroll, K. S. Angew Chem Int Ed Engl 51, 6502-5 (2012)). Despite such progress, there are no reported methods to selectively profile endogenous S-sulfinylation in complex proteomes. […]\nPurified human GAPDH was diluted to 0.2 mg/mL in phosphate buffered saline (pH 7.3), and treated with 20 mM iodoacetamide for 30 minutes. […] Eluted peptides were analyzed using a Waters Synapt G2-S HDMS time-of-flight mass spectrometer in positive mode. […] MS data was searched using Waters Protein Lynx Global Server v3.0 using the exact mass calculated for the cysteine thiosulfonate modification."}, "[1]": {"type": "physicochemical", "description": "S-nitrosoglutathione (GSNO, Cayman) and sodium phenylsulfinate (Sigma-Aldrich) were used for rate-determination studies at four pH values: pH 1.0 (0.2 N HCl/KCl buffer), pH 4.0 (0.1 M Sodium acetate/Acetic Acid buffer), pH 7.0 (0.1 M potassium phosphate buffer) and pH 10.0 (0.1 M Sodium bicarbonate/Sodium hydroxide buffer). The purity of S-nitrosoglutathione was calculated as 94±1.3% by absorbance at 334 nm using the molar extinction coefficient of 900 M^−1 cm^−1. Assays were performed using a plate reader (Tecan Infinite F500) monitoring absorbance of 2 mM GSNO at 340 nm over a course of 90 minutes in the presence of varying concentrations of sodium phenylsulfinate. Additional experiments confirmed thiosulfonate stability for >5 hours at pH 1, 4, and 7, but hydrolysis at pH 10. GSNO was stable in 6 M urea/PBS for >1 hour. Absorbance data was imported into KaleidaGraph (version 4.02, Synergy Software), and logarithmically fit to the first order exponential decay. The Kobs was calculated for each phenylsulfinic acid concentration, and plotted to calculate the rate constant for the overall reaction."}, "[2]": {"test_system": "S-sulfinylated proteins in mammalian lysates", "assay": "Gel-based analysis of S-sulfinylation with biotin-GSNO", "type": "biochemical", "conditions": "lysates in 6 M urea/PBS, pre-alkylated with iodoacetamide", "description": "as §1\nIt was next asked what would happen if the detection scheme was reversed, using S-nitrosothiol-linked probes to detect endogenous S-sulfinylation. Similar reactivity was recently reported using aryl-nitroso ligation to several sulfinic acid standards, including glutathione, to form a stable N-sulfonylbenzisoxazolone (see, e.g., Lo Conte, M. & Carroll, K. S. Angew Chem Int Ed Engl 51, 6502-5 (2012)). Despite such progress, there are no reported methods to selectively profile endogenous S-sulfinylation in complex proteomes. In order to test this approach, recombinant human DJ-1 was purified, a redox chaperone that spontaneously forms a stable sulfinic acid at Cys106 (see, e.g., Canet-Aviles, R. M. et al. Proc Natl Acad Sci USA 101, 9103-8 (2004)). After iodoacetamide alkylation of free thiols, N-acetyl-S-nitrosocysteine methyl ester was added to DJ-1, and processed for high-resolution LC-MS analysis (FIG. 20A and FIG. 21)). […]"}}, "data": [{"smiles": "COC(=O)[C@H](CSN=O)NC(C)=O", "note": "[N-acetyl-S-nitrosocysteine methyl ester, (R)-methyl 2-acetamido-3-(nitrosothio)propanoate]", "values": [{"measurement": "thiosulfonate formation with DJ-1", "setting": "human DJ-1 (Cys106-SO2H)", "result": "confirmed thiosulfonate formation at Cys106-SO2H"}]}, {"smiles": "N[C@@H](CCC(=O)N[C@@H](CSN=O)C(=O)NCC(=O)O)C(=O)O", "note": "[GSNO, S-nitrosoglutathione, reference compound]", "values": [{"measurement": "stability", "setting": "[1]", "result": "> 1", "unit": "h"}]}, {"smiles": "O=NSC[C@H](NC(=O)CCC(NC(=O)CCCC[C@@H]1SC[C@@H]2NC(=O)N[C@@H]21)C(=O)O)C(=O)NCC(=O)O", "note": "(stereo partly drawn) [biotin-GSNO, 5-(((R)-1-((carboxymethyl)amino)-3-(nitrosothio)-1-oxopropan-2-yl)amino)-5-oxo-2-(5-((3aS,4S,6aR)-2-oxohexahydro-1H-thieno[3,4-d]imidazol-4-yl)pentanamido)pentanoic Acid]", "values": [{"measurement": "labeling of S-sulfinylated proteins", "setting": "[2]", "result": "distinct profile of putative S-sulfinylated proteins"}]}]}
